Tested on: rat
Test: concentration in urine after dosing
Conditions: dosed: benzo(a)pyrene, 20 mg/kg, iv, male, Sprague-Dawley

Oc1ccc2ccc3cc4ccccc4c4ccc1c2c34 [1-hydroxybenzo(a)pyrene]
Conditions | concentration in urine [ng/mL]
3.699 h | 0.371
7.645 h | 0.0295
10.85 h | 0.0167
22.69 h | 1.58
28.98 h | 3.02
34.9 h | 5.24
46.73 h | 2.31
52.9 h | 2.18
58.94 h | 1.1
77.07 h | 0.514
94.7 h | 0.0397

Oc1ccc2ccc3c4ccccc4cc4ccc1c2c43 [3-hydroxybenzo(a)pyrene]
Conditions | concentration in urine [ng/mL]
4.071 h | 0.145
8.015 h | 0.0241
23.16 h | 5.11
28.88 h | 6.99
35.11 h | 8.63
47.07 h | 6.84
52.93 h | 6.1
59.03 h | 2.19
76.84 h | 0.0482
95.04 h | 0.289

c1ccc2c(c1)cc1ccc3cccc4ccc2c1c34 [benzo(a)pyrene]
Conditions | concentration in urine [ng/mL]
4.13 h | 3.27
7.866 h | 0.98
11.07 h | 0.98
23.06 h | 10.1
29.09 h | 126
35.2 h | 1.96
47.07 h | 0.98
52.8 h | 0.654
58.8 h | 0.654
76.8 h | 0.654
94.93 h | 0.654
